Experimental data reported in patent publication US7166581B1, “Treatment of chemotherapeutic agent and antiviral agent toxicity with acylated pyrimidine nucleosides” (Wellstat Therapeutics Corporation, priority 1987, dated 2007).

Tests used:
[1] = system: hematopoietic system (AZT toxicity); assay: Oral TAU vs hematopoietic damage by AZT in drinking water (Example 8); assay type: in vivo, Balb/C female mice
Experimental: Forty-two Balb/C female mice, each weighing approximately 19 grams, were divided into three different groups of 14 animals each. The three groups were: basal (no AZT, no treatment), control (AZT, water), and TAU (AZT, TAU at 460 mg/kg/treatment). AZT was administered ad libitum in the drinking water at a concentration of 1.5 mg/ml throughout the course of the experiment. The volume of AZT solution consumed in all treatment groups was similar and averaged 2.25 ml per day per mouse, resulting in a daily AZT dose of about 170 mg/kg per day. Water and TAU were administered in a volume of 0.2 mL three times per day for the first 24 days of the study, and twice each day thereafter.
(§1) All of the animals were weighed on the day the experiment began, once each week, and immediately prior to sacrifice. After weighing the mice on days 24 and 35, blood (0.2–0.3 ml) was collected from seven mice in each group by retro-orbital bleeding into EDTA for subsequent differential blood cell counting, including reticulocytes. Mice were then sacrificed by cervical dislocation; their right femurs removed and the contents expelled for cell counting; and their spleens removed and weighed.

[2] = system: hematopoietic system (5-FU toxicity); assay: TAU dose-response on hematopoietic recovery after 5-FU (Example 2); assay type: in vivo, female Balb/C mice; set-up: Marrow: unit not given here; conditions: for HCT (11d): eleven days after 5-FU
Experimental: Seventy female Balb/C mice weighing approximately twenty grams were each given an i.p. injection of 5-FU (150 mg/kg) at 1:00 p.m. on the initial day of the study. These animals were then divided into five different treatment groups: control (water), and oral TAU at doses of 100, 250, 500, and 1,000 mg/kg/treatment. The test compounds were then given at 3:00, 5:00, 7:30, and 10:00 p.m. on the day of 5-FU administration; at 9:00 a.m., 11:00 a.m., and 1:00, 3:00, 6:00, and 10:00 p.m. the following day; and a final administration at 11:00 a.m. two days following the single 5-FU injection. Each treatment was given orally in a volume of 0.2 ml water (by gavage), except the highest dose of TAU which was administered in 0.4 ml of water.
On days seven and eleven following 5-FU administration, blood (0.2–0.3 ml) was collected from seven mice in each group by retro-orbital bleeding into EDTA for subsequent differential blood cell counting. Mice were sacrificed by cervical dislocation; their right femurs removed and the contents expelled for cell counting; and their spleens removed and weighed.

[3] = system: hematopoietic system (AZT toxicity); assay: Oral TAU vs hematopoietic damage by i.p. AZT (Example 9); assay type: in vivo, female Balb/C mice
Experimental: AZT (100 mg/kg i.p.) was given three times daily at 9 a.m., 4 p.m., and at 10 p.m. to fifty-six female Balb/C mice weighing approximately 19 grams each. Three times each day, at 9 a.m., 4 p.m., and 10 p.m., animals were treated with either water (control) or TAU at doses of 230, 460, or 920 mg/kg/treatment by oral intubation. Treatment volume was 0.2 ml for the control and TAU 460 groups, 0.1 ml for the TAU 230 group, and 0.4 ml for the TAU 920 group. One additional group of fourteen mice was not given AZT or any treatments (basal).
as §1, with “on day six” for “once each week,”, “on day 13.” for “immediately prior to sacrifice.”, “six” for “24”, “thirteen” for “35,”

[4] = Plasma uridine after oral uridine or TAU, with or without dipyridamole (Example 12); assay type: in vivo, female Balb/C mice
Experimental: Female Balb/C mice with a body weight of 20 grams were divided into four groups of 8 animals each: [table] Dipyridamole was administered by intraperitoneal injection 30 minutes prior to uridine or TAU Uridine was administered orally by gavage as an aqueous solution in a volume of 0.4 ml. TAU was administered by gavage in an emulsion vehicle (1:1 corn oil/water with 2.5% Tween 80). Two mice from each group were bled from the suborbital plexus at each time point: 0 (Basal uridine levels before TAU or uridine administration), 0.5, 1, 2, and 4 hours after administration of TAU or uridine Plasma samples (0.1 ml) were deproteinized by addition of 0.2 ml methanol followed by centrifugation. Samples were lyophilized and then reconstituted with HPLC buffer (100 mM ammonium acetate, pH 6.5, for subsequent assay of uridine by reverse phase HPLC with UV absorbance detection (254 nm). Data points are the mean of two samples for each time point.

[5] = day 24, AZT in drinking water + oral TAU 460 mg/kg/treatment
[6] = day 35, AZT in drinking water + oral TAU 460 mg/kg/treatment
[7] = seven days after 5-FU, oral TAU 100 mg/kg/treatment
[8] = seven days after 5-FU, oral TAU 250 mg/kg/treatment
[9] = seven days after 5-FU, oral TAU 500 mg/kg/treatment
[10] = seven days after 5-FU, oral TAU 1000 mg/kg/treatment
[11] = day 13, AZT i.p. + oral TAU 460 mg/kg/treatment

Which Body weights ([1]; day 7, AZT […] in drinking water + oral TAU 460 mg/kg/treatment) does the source give for `CC(=O)OC[C@H]1O[C@@H](n2ccc(=O)[nH]c2=O)[C@H](OC(C)=O)[C@@H]1OC(C)=O` [TAU, triacetyluridine] here?
Its Body weights is 19.51±0.38 grams.

And the RBC counts [1, 5]?
The RBC counts was 9.01±0.09.

What about the Total neutrophil counts [1, 5] of the same molecule?
Its Total neutrophil counts is 0.91±0.06.

And the HCT [1, 6]?
Its HCT is 41.26 ± .62 percentage.

And the HGB [1, 6]?
Its HGB is 15.14 ± .12 gm/dl.

And the “MCH (mean cell hematocrit)” value [1, 6]?
Its value is 18.49 ± .28 picograms.

And the MCV [1, 6]?
The MCV was 50.41 ± .48 fL.

And the PLT [1, 6]?
Its PLT is 809 ± 06 K/μl.

What about the RBC [1, 6] of the same molecule?
The RBC was 8.20 ± .20 M/μl.

And the reticulocyte levels [1, 6]?
The reticulocyte levels was 0.371 ×10^6 per microliter.

And the “Total neutrophil counts vs control” value ([2]; day eleven after 5-FU, TAU 250, 500, and 1,000 groups)?
Its value is “significantly greater than control values”.

What about the Spleen weight ([2]; day eleven after 5-FU, TAU 250 group) of the same molecule?
The Spleen weight was 104.2 ± 3.5 mg.

What about the “Red blood cell counts” value ([2]; day eleven after 5-FU, TAU 500 group) of the same molecule?
Its value is 8.72±0.18 ×10^6 per microliter.

What about the “Red blood cell counts” value ([2]; day eleven after 5-FU, TAU 1000 group) of the same molecule?
Its value is 8.63±0.16 ×10^6 per microliter.

And the “Total neutrophil counts, fold of controls” value ([2]; day seven after 5-FU, TAU 1,000 group)?
The value was “approximately three-fold”.

And the “HCT (11d)” value ([2]; T100)?
The value was 36.80.

What about the “HCT (11d)” value ([2]; T250) of the same molecule?
Its value is 37.47 ± .83.

And the “HCT (11d)” value ([2]; T500)?
Its value is 41.16 ± .88.

What about the “HCT (11d)” value ([2]; T1000) of the same molecule?
Its value is 41.55 ± .77.

And the Marrow ([2]; seven days after 5-FU 150 mg/kg i.p., oral TAU 100 mg/kg/treatment)?
Its Marrow is 1.77 ± .18.

What about the “HCT (7d)” value ([2]; seven days after 5-FU, T100) of the same molecule?
Its value is 37.77.

And the “HCT (7d)” value ([2]; seven days after 5-FU, T250)?
Its value is 40.04 ± .38.

And the “HCT (7d)” value ([2]; seven days after 5-FU, T500)?
The value was 39.50 ± .61.

What about the “HCT (7d)” value ([2]; seven days after 5-FU, T1000) of the same molecule?
The value was 40.84 ± .68.

What about the Lym [2, 7] of the same molecule?
Its Lym is 2.46 ± .04 K/μl.

What about the Neut [2, 7] of the same molecule?
Its Neut is “.014 ± .008 K/μl”.

And the PLT [2, 7]?
Its PLT is 440 ± 46 K/μl.

And the RBC [2, 7]?
The RBC was 8.20 ± .07 M/μl.

And the WBC [2, 7]?
The WBC was 2.47 ± .04 K/μl.

What about the Lym [2, 8] of the same molecule?
The Lym was 2.71 ± .20 K/μl.

What about the Marrow [2, 8] of the same molecule?
The Marrow was 2.91 ± .48.

What about the Neut [2, 8] of the same molecule?
Its Neut is “.027 ± .012 K/μl”.

And the PLT [2, 8]?
Its PLT is 601 ± 46 K/μl.

What about the RBC [2, 8] of the same molecule?
Its RBC is 8.51 ± .06 M/μl.

And the WBC [2, 8]?
Its WBC is 2.76 ± .20 K/μl.

What about the Lym [2, 9] of the same molecule?
The Lym was 3.99 ± .15 K/μl.

And the Marrow [2, 9]?
Its Marrow is 3.93 ± .39.

What about the Neut [2, 9] of the same molecule?
The Neut was “.037 ± .020 K/μl”.

What about the PLT [2, 9] of the same molecule?
The PLT was 712 ± 42 K/μl.

What about the RBC [2, 9] of the same molecule?
The RBC was 8.43 ± .16 M/μl.

And the WBC [2, 9]?
The WBC was 4.06 ± .14 K/μl.

And the Lym [2, 10]?
Its Lym is 3.44 ± .23 K/μl.

What about the Marrow [2, 10] of the same molecule?
Its Marrow is 4.42 ± .34.

And the Neut [2, 10]?
The Neut was “.071 ± .027 K/μl”.

And the PLT [2, 10]?
Its PLT is 715 ± 35 K/μl.

And the RBC [2, 10]?
Its RBC is 8.65 ± .15 M/μl.

What about the WBC [2, 10] of the same molecule?
Its WBC is 3.57 ± .25 K/μl.

What about the HCT [3, 11] of the same molecule?
The HCT was 40.83 ± 0.37%.

What about the HGB [3, 11] of the same molecule?
The HGB was 14.54 ± G/dL.

What about the Lymph. [3, 11] of the same molecule?
The Lymph. was 6.06 ± 0.38 K/μl.

And the Neutro. [3, 11]?
Its Neutro. is 0.62 ± 0.03 K/μl.

And the Platelets [3, 11]?
The Platelets was 863 ± 26 K/μl.

What about the RBC [3, 11] of the same molecule?
The RBC was 8.58 ± M/μl.

What about the Retic. [3, 11] of the same molecule?
Its Retic. is 0.162 ± 0.014 M/μl.

And the WBC [3, 11]?
The WBC was 7.0 ± K/μl.

What about the bone marrow cellularity ([3]; day six, AZT 100 mg/kg i.p. three times daily + oral TAU 230 mg/kg) of the same molecule?
Its bone marrow cellularity is 8.89±0.46.

And the RBC levels ([3]; day six, AZT i.p. + oral TAU 460 mg/kg/treatment)?
The RBC levels was 9.15±0.07 ×10^6 per microliter.

And the WBC counts ([3]; day six, AZT i.p. + oral TAU 920 mg/kg)?
Its WBC counts is 8.46±0.63 ×10^3 per microliter.

What does the source list for `O=c1ccn([C@@H]2O[C@H](CO)[C@@H](O)[C@H]2O)c(=O)[nH]1` [Urd, uridine]?
concentration at 0 h ([4]; female, Balb/C, mouse, plasma, oral, 1000 mg/kg, 0 hr (basal, before TAU or uridine), DPM 25 mg/kg i.p. 30 min before where given, read-out: Plasma uridine levels): 2 µM; concentration at 0.5 h ([4]; female, Balb/C, mouse, plasma, oral, 0.5 hr after uridine 1000 mg/kg p.o. or equimolar TAU 1500 mg/kg p.o., ± DPM 25 mg/kg i.p., read-out: Plasma uridine levels): 4 µM; concentration at 1 h ([4]; female, Balb/C, mouse, plasma, oral, 1 hr after uridine 1000 mg/kg p.o. or equimolar TAU 1500 mg/kg p.o., ± DPM 25 mg/kg i.p., read-out: Plasma uridine levels): 6 µM; concentration at 2 h ([4]; female, Balb/C, mouse, plasma, oral, 2 hr after uridine 1000 mg/kg p.o. or equimolar TAU 1500 mg/kg p.o., ± DPM 25 mg/kg i.p., read-out: Plasma uridine levels): 4 µM; concentration at 4 h ([4]; female, Balb/C, mouse, plasma, oral, 4 hr after uridine 1000 mg/kg p.o. or equimolar TAU 1500 mg/kg p.o., ± DPM 25 mg/kg i.p., read-out: Plasma uridine levels): 2 µM; peak plasma uridine levels ([4]; uridine 1000 mg/kg p.o. or equimolar TAU 1500 mg/kg p.o., ± DPM 25 mg/kg i.p.): 6 µM
